Assay results reported in ChEMBL document CHEMBL1201862, “PubChem BioAssay data set” (2004).
The source made the active and inactive calls.

How the values were obtained:
Paired box protein Pax-8 = Paired box protein Pax-8 (Homo sapiens, UniProt Q06710); experiment: PAX8 transcriptional activity inhibition in RMG-I – RMG-I cells, luciferase, cherry-pick, dose response (AID 687027); type: functional, cell-based;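 also: luciferase reporter driven by Pax8 target thyroperoxidase promoter measured by SteadyGlo luminescence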
[1] = luciferase reporter signal reduction – luminescence, H4-C neuroglioblastoma cells, dose response (AID 2458); type: functional, cell-based;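 also: H4 neuroglioblastoma cells stably carrying a luciferase reporter gene fusion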
[2] = blockers of HIV-1 envelope-mediated cell-cell fusion – cherry-pick, dose response (AID 652057); type: functional, cell-based
cells = type: functional, cell-based
[3] = blockers of HIV-1 ZM109 envelope-driven cell-cell fusion – HeLa effector, CEM target cells, luciferase, cherry-pick, dose response (AID 652058); type: functional, cell-based;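 also: luciferase signal from HIV-1 Env mediated cell-cell fusion of effector and target cells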
[4] = Luminescence Cell-Based Dose Response HTS to Identify Inhibitors of 5'UTR Stem-Loop Driven Prion Protein mRNA Translation in H4 Neuroglioblastoma Cells. [Related pubchem assays: 1827 (Project Summary), 1813 (Primary HTS)]; type: functional
[5] = Luminescence-based counterscreen assay for KLF5 inhibitors: dose response cell-based high throughput screening assay to identify cytotoxic compounds using the IEC-6 intestinal epithelial cell line. [Related pubchem assays: 1700 (Primary screen.), 1834 (Confirmation screen.), 1858 (Summary AID.), 1905 (Counterscreen.)]; type: functional
Jurkat = experiment: blockers of NF-kB activation in T cells – Jurkat, luciferase reporter, luminescence, B- and T-cell, dose response (AID 489004); type: functional, cell-based; conditions: Homo sapiens;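 also: NF-kB luciferase reporter Jurkat cells stimulated with PMA plus ionomycin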
[6] = alpha-synuclein stem-loop luciferase translation blockers – H4 neuroglioma cells, luminescence, confirmation (AID 1988); type: functional, cell-based
[7] = alpha-synuclein stem-loop translation blockers – luminescence, H4 neuroglioblastoma cells, dose confirmation, confirmation (AID 2454); type: functional, cell-based;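 also: H4 neuroglioblastoma cells carrying an alpha-synuclein 5'UTR luciferase reporter; potency for inhibition of the luciferase signal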
[8] = off-target signal loss in HeLa-CEM21 co-culture – HeLa F-luc CTL cells, cherry-picked, counter-screen for HIV-1 Env fusion inhibitor project, dose response (AID 652040); type: functional, cell-based;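 also: potency for signal decrease marking cytotoxic or nonspecific inhibition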
[9] = HIV-1 AD8 envelope cell-cell fusion blockers – cherry-pick, dose response (AID 652062); type: functional, cell-based;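 also: luciferase signal from cell-cell fusion driven by HIV-1 clade B AD8 Env; potency is for inhibitors of fusion seen as a drop in luminescence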
[10] = HEK-293T viability loss, compound-treated – cell-based, uHTS hits, cytotoxicity control for B/T-cell NF-kB inhibitor project, dose response (AID 489019); type: functional;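 also: IC50 reflects cytotoxicity as loss of cell viability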
[11] = luciferase reporter signal suppression in cells – H4 neuroglioma cells, luminescence, dose response (AID 1990); type: functional, cell-based
[12] = target: Dual specificity protein phosphatase 3 (Homo sapiens, UniProt P51452); experiment: inhibition constants for human DUSP3 – biochemical, colorimetric, SAR follow-up (AID 2004)
[13] = target: Luciferin 4-monooxygenase (Photinus pyralis, UniProt P08659); experiment: Counter Screen for Luciferase-based Assay Positives. [Related pubchem assays: 620, 618, 411 ]
HT-1080 = experiment: HT1080 cell viability loss – fluorescence readout (AID 620); type: functional, cell-based; conditions: Homo sapiens
HEK293 = experiment: EBV LMP1 TES2 canonical NF-kB signalling blockers – cell-based, HEK293, luciferase, cherry-pick, dose response (AID 588343); type: functional; conditions: Homo sapiens
[14] = target: Acyl-homoserine lactone acylase PvdQ (Pseudomonas aeruginosa (strain LESB58), UniProt Q9I194); experiment: PvdQ acylase enzyme activity blockers – biochemical, fluorescence, plate reader and imaging, cherry-picks, dose response (AID 493231)
[15] = A Cell Based Assay for the Identification of Probe candidate Compounds with Anti- Venezuelan Equine Encephalitis virus. [Related pubchem assays: 2409, 2419, 1621, 2238, 2405, 2024, 2065, 2402, 2414, 1635, 1650, 2244 ]; type: functional
Vero [16] = experiment: Vero 76 cell viability after compound exposure – Vero 76 cells, synthesized analogs, cytotoxicity control for West Nile virus antiviral project, SAR follow-up (AID 2414); type: functional; conditions: Chlorocebus sabaeus
Vero [17] = experiment: Vero cell viability after compound exposure – synthesized analogs, set II, cytotoxicity control for West Nile virus antiviral project, SAR follow-up (AID 2402); type: functional; conditions: Chlorocebus sabaeus
Vero [18] = experiment: host cell viability loss, Vero E6 – synthesized analogs, cytotoxicity control for West Nile virus antiviral project, SAR follow-up (AID 2244); type: functional; conditions: Chlorocebus sabaeus
[19] = target: T1, Sentrin-specific protease 1 (Homo sapiens, UniProt Q9P0U3); experiment: Dose response confirmation of small molecule inhibitors of the catalytic domain of the SUMO protease, SENP1 in a FRET assay.; type: functional; conditions: read-out: IC50_Mean
T1 sequence (Q9P0U3 whole entry): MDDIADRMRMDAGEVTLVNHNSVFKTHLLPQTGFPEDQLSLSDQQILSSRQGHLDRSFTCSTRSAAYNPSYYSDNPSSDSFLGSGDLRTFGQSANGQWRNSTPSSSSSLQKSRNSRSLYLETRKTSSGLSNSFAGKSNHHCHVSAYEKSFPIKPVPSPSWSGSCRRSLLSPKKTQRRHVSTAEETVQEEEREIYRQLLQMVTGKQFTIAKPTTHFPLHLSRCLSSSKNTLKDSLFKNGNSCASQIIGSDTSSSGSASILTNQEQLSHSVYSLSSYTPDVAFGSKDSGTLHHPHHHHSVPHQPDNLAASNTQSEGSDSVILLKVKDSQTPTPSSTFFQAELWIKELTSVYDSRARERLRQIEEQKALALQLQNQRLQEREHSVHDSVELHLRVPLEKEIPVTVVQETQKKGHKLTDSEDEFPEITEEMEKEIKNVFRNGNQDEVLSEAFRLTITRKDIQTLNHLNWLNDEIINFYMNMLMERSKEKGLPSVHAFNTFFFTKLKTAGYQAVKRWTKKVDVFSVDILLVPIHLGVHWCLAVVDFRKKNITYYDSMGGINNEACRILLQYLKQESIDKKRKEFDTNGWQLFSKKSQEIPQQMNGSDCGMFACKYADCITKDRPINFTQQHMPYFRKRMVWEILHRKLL

[20] = HEK-293T cell viability reduction – luminescence, B-cell screen hits, cytotoxicity control for BCR NF-kB inhibitor project, dose response (AID 489021); type: functional, cell-based;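 also: HEK-293T cells carrying an NF-kB luciferase reporter; cells exposed to compound for about 14 hours before viability readout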
[21] = target: T1, Sentrin-specific protease 1; experiment: SENP1 catalytic domain blockers, concentration series – biochemical, kinetic FRET, dose response (AID 651697); type: functional; conditions: read-out: IC50_Mean
Cytochrome P450 2C9 = Cytochrome P450 2C9 (Homo sapiens, UniProt P11712); conditions: Potency
Cytochrome P450 3A4 = Cytochrome P450 3A4 (Homo sapiens, UniProt P08684); conditions: Potency;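 also: confirmatory qHTS run detecting inhibitors and substrates of CYP3A4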
Chain of Cytochrome P450 3A4 (P08684 whole entry): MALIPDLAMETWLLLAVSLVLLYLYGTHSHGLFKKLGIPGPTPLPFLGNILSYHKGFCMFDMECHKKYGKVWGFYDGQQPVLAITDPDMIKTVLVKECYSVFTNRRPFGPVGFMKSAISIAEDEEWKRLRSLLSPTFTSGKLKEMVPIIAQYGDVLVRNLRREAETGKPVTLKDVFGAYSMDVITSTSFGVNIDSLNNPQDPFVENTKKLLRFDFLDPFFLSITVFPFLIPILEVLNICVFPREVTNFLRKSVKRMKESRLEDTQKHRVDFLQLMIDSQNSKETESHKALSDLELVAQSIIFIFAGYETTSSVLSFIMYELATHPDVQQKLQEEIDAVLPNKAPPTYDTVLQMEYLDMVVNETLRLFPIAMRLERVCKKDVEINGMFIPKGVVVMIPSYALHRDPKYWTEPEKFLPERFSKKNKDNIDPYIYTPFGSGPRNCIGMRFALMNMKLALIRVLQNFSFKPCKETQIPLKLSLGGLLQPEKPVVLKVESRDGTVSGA

Chain of Dual specificity protein phosphatase 3 (P51452 whole entry): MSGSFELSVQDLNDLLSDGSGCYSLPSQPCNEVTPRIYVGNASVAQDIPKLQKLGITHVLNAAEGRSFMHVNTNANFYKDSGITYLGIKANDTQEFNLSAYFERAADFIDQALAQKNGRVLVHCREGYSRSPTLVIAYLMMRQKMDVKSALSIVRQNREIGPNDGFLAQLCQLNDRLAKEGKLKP
Chain of Cytochrome P450 2C9 (P11712 whole entry): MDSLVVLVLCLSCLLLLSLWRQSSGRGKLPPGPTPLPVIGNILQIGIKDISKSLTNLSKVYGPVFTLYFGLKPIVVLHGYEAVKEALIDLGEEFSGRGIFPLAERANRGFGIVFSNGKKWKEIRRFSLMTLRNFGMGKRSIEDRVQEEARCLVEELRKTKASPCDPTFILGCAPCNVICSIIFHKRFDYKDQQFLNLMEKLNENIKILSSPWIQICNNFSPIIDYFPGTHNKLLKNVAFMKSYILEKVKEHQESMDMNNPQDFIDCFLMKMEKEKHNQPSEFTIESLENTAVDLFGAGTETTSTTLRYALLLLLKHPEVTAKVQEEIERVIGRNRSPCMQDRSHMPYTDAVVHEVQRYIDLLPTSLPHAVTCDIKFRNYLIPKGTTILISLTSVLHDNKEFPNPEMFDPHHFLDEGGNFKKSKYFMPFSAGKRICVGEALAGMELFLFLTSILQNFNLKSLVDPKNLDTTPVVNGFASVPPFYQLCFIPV
Chain of Paired box protein Pax-8 (Q06710 whole entry, the tested form may be a part): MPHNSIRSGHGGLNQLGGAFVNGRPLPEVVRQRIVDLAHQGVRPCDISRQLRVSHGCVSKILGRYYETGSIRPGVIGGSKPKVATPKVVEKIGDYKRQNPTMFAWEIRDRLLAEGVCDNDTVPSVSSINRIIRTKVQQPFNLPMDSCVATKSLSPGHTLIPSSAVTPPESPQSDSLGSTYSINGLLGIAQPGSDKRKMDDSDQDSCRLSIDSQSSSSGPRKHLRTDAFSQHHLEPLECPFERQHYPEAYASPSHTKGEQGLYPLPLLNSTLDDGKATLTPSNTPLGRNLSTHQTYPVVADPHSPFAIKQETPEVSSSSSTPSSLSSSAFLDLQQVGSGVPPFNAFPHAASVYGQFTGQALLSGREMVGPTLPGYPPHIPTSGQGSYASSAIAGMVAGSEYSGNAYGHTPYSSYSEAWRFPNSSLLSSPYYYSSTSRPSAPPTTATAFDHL
Chain of Acyl-homoserine lactone acylase PvdQ (Q9I194 24-193 limits assumed): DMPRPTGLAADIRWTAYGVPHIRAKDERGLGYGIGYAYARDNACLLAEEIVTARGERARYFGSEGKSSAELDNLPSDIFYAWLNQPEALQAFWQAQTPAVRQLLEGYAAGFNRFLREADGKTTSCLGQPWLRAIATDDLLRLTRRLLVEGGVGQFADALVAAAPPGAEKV
Chain of Acyl-homoserine lactone acylase PvdQ (Q9I194 217-762 limits assumed): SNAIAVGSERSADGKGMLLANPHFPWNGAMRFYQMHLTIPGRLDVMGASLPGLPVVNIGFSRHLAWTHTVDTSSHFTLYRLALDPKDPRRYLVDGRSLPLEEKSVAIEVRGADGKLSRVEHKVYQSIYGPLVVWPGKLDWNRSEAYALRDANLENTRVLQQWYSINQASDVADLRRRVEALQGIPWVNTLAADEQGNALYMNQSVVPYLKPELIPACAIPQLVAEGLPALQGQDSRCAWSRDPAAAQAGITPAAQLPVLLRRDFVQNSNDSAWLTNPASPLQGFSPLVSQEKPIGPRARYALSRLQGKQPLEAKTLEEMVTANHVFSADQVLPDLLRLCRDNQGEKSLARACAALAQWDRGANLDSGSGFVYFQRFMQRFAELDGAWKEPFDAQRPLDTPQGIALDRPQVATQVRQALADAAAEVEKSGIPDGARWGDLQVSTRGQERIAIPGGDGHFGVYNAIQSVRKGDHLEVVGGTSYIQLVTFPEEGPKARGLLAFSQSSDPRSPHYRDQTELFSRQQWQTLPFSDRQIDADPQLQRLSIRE
Chain of Luciferin 4-monooxygenase (P08659 whole entry): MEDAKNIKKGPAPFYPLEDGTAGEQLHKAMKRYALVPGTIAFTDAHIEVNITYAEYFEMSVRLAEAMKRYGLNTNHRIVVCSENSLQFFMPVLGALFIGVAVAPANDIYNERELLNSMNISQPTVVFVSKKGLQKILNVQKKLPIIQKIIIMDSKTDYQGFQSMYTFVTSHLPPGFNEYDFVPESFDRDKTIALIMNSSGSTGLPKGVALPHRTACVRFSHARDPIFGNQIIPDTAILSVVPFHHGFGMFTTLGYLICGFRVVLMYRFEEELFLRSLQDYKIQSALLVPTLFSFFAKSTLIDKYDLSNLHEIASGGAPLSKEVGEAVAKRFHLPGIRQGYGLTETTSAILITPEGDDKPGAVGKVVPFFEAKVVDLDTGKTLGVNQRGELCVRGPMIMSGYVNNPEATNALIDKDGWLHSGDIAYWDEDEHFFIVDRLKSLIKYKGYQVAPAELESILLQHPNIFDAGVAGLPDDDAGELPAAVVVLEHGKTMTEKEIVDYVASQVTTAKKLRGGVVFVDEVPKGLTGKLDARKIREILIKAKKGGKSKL

O=C(NCCc1ccccc1F)c1ccc2c(c1)OCCO2
AC50 (Paired box protein Pax-8): 2.18 µM (active) | EC50 [1]: 0.258 µM (active) | AC50 [2]: 2.14 µM (active) | EC50 (cells): 0.316 µM (active) | AC50 [3]: 8.11 µM (active) | EC50 [4]: < 0.1 µM (active) | IC50 [5]: > 39.8 µM (not active) | IC50 (Jurkat): 0.77 µM (active) | EC50 [6]: 0.113 µM (active) | EC50 [7]: 0.151 µM (active) | AC50 [8]: 3.21 µM (active) | AC50 [9]: 1.25 µM (active) | IC50 [10]: > 80 µM (inactive) | EC50 [11]: 0.16 µM (active)

CC(C)C1SC(N/N=C/c2ccc(O)cc2)=NC1=O (stereo not drawn)
Ki [12]: 36.1 µM (inactive)

Cc1ccc(C(=O)Nc2cccc(C(=O)O)c2)cc1S(=O)(=O)N1CCCCC1
EC50 [13]: < 0.2 µM (active) | EC50 (HT-1080): > 50 µM (not active) | AC50 (HEK293): 3.76 µM (active)

O=C(CSCc1ccco1)N1CCc2ccccc21
AC50 [14]: 1.9 µM (active)

COc1cccc(NC(=O)CSc2nc3ccccc3c(=O)n2-c2ccc(F)cc2)c1
IC50 [15]: 64.2 µM (active) | CC50 (Vero [16]): > 66.6 µM (active) | CC50 (Vero [17]): > 100 µM (active) | CC50 (Vero [18]): > 40 µM (active)

CCSc1ncc(Cl)c(C(=O)Nc2sc3c(c2C(=O)NCc2cccnc2)CCCC3)n1
IC50 [19]: 5.97 µM (active) | IC50 [20]: > 80 µM (inactive) | IC50 [21]: 19.1 µM (active)

O=c1c(O)c(-c2ccc(O)cc2)oc2ccc(O)cc12
AC50 (Cytochrome P450 2C9): 10 µM (inconclusive) | AC50 (Cytochrome P450 3A4): 12.6 µM (inconclusive)
